The values below come from ChEMBL document CHEMBL2073995, “Possible involvement of P-glycoprotein in renal excretion of pazufloxacin in rats” (Eur J Pharmacol, 2004).

For the data set, the target named is ATP-dependent translocase ABCB1 (Homo sapiens, UniProt P08183). The data set can be described thus: TP_TRANSPORTER: cell accumulation in K562/ADR cells. The class given is functional, cell-based.
Chain of ATP-dependent translocase ABCB1 (P08183 whole entry): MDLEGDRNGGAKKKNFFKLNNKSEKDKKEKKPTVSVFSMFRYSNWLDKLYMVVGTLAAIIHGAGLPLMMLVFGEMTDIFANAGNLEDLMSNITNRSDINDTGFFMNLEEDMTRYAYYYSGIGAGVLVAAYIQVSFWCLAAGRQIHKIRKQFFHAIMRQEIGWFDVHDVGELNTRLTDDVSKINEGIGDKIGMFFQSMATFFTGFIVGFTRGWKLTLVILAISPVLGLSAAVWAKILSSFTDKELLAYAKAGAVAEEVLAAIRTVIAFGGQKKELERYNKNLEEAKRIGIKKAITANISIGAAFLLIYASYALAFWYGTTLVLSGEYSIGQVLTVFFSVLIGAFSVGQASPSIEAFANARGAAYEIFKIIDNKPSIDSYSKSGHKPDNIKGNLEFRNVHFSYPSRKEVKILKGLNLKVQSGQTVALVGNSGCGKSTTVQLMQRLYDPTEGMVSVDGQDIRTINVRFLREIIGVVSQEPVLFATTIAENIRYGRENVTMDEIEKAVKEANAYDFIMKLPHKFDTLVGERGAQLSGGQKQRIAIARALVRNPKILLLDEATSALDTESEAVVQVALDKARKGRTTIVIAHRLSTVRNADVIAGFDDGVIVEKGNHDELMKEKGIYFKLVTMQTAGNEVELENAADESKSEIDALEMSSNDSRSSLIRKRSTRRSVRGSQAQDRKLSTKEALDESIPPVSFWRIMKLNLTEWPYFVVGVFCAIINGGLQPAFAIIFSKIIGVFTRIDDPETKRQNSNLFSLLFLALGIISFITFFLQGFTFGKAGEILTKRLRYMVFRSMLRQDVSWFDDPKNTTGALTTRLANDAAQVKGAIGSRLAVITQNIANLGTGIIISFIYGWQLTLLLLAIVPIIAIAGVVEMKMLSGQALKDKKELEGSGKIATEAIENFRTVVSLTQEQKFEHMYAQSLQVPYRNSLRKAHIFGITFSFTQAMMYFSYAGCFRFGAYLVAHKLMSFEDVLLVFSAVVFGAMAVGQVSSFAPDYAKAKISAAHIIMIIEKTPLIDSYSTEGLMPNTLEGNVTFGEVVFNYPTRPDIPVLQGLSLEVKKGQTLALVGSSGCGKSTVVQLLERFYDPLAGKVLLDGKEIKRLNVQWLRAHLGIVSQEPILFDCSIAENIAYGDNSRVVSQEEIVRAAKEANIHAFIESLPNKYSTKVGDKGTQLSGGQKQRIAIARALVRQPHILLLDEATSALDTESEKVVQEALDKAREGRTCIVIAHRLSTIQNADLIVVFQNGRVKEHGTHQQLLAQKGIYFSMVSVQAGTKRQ

Turning to `C[C@H]1COc2c(C3(N)CC3)c(F)cc3c(=O)c(C(=O)O)cn1c23` [PAZUFLOXACIN], the Activity result is “substrate [+]”.
